A word on the EC50: it is the concentration that produces a half-maximal response. Usually CC50 stands for the concentration giving 50% cytotoxicity.

Calls of active or inactive are those of the source.

Assay type in all cases: functional
The target of experiment [1] is Tyrosine-protein phosphatase non-receptor type 11 (Homo sapiens, UniProt Q06124). As to the kind of experiment: SHP2 phosphatase inhibition, dose response, selectivity assay for STEP inhibitor project, biochemical (AID 602367). Conditions: read-out: IC50_Mean.
The target in experiment [2] is Dual specificity protein phosphatase 3 (Homo sapiens, UniProt P51452). The experiment can be described thus: VHR phosphatase inhibition, dose response, selectivity assay for STEP inhibitor project, biochemical (AID 602374). Conditions: read-out: IC50_Mean.
In experiment [3] the target is Small ubiquitin-related modifier 1 (Homo sapiens, UniProt P63165). The experiment can be described thus: inhibitors of SUMO1 partner interactions, dose response, biochemical, FRET (AID 624383). Conditions: read-out: IC50_Mean.
Experiment [4] concerns the target T1, Tyrosine-protein phosphatase non-receptor type 22 (Homo sapiens, UniProt Q9Y2R2).
T1 sequence (Q9Y2R2 whole entry): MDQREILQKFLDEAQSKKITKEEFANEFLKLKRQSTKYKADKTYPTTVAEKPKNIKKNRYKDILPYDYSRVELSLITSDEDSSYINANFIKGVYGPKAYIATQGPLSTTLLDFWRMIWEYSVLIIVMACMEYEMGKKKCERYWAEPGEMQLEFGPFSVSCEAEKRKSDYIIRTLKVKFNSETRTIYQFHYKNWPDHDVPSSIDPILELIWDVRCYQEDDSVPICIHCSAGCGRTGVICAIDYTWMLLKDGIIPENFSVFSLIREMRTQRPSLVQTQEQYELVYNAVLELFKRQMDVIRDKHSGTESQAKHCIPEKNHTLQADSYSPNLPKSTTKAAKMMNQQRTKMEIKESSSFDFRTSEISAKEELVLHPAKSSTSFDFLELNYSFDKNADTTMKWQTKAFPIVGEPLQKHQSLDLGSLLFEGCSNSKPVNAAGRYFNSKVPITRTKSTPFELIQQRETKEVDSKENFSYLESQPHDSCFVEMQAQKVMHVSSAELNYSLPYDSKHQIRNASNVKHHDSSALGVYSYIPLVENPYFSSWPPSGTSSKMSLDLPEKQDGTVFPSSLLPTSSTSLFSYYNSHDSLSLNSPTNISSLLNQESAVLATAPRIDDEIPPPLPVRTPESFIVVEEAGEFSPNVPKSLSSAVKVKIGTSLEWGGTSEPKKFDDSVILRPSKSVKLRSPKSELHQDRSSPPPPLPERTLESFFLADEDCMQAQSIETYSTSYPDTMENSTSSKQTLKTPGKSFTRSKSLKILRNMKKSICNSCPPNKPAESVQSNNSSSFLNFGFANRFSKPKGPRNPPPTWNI
As to the kind of experiment: PTPN22 phosphatase inhibition, dose response, selectivity assay for STEP inhibitor project, biochemical (AID 624241).

Experiment [5] has as its target Kappa-type opioid receptor (Homo sapiens, UniProt P41145).
In experiment [6] the target is Delta-type opioid receptor (Homo sapiens, UniProt P41143). As to the kind of experiment: HTS Image-Based Screen for Antagonists of the DOR Receptor. [Related pubchem assays (depositor defined):AID1777, AID1785, AID1786, AID2133].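 Also: U2OS cells expressing DOR stimulated with 100 nM SNC80 agonist.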
Experiment [7] addresses T2, Heat shock factor protein 1 (Mus musculus, UniProt P38532).
T2 sequence (P38532 whole entry): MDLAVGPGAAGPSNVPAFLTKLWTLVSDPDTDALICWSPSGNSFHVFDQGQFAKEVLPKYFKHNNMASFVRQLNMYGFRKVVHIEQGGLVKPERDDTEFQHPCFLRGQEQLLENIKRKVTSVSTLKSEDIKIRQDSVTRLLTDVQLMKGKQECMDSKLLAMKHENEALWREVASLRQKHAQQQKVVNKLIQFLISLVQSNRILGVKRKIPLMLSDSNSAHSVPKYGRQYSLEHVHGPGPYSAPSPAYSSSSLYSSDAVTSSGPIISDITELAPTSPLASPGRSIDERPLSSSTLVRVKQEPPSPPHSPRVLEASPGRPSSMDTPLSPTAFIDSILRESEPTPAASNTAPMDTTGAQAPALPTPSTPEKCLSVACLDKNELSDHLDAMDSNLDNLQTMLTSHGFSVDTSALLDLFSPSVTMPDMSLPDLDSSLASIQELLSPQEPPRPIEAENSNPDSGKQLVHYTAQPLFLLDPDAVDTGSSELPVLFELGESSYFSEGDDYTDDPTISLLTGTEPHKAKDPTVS
The experiment can be described thus: HSF1 potentiators in luciferase reporter cells, confirmation, cell-based, NIH3T3, luminescence, dose retest (AID 435004).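 Also: stress induced by proteasome inhibitor MG132 added 30 min after compound; luciferase reporter driven by HSF1 response element in NIH3T3 cells; actives raise luminescence as potentiators of the MG132 stress response.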 On the technique in general: In a reporter assay the amount or activity of a reporter protein is the signal.

For another experiment, the target named is T3, Protein RecA (Mycobacterium tuberculosis, UniProt P9WHJ3).
T3 sequence (P9WHJ3 whole entry): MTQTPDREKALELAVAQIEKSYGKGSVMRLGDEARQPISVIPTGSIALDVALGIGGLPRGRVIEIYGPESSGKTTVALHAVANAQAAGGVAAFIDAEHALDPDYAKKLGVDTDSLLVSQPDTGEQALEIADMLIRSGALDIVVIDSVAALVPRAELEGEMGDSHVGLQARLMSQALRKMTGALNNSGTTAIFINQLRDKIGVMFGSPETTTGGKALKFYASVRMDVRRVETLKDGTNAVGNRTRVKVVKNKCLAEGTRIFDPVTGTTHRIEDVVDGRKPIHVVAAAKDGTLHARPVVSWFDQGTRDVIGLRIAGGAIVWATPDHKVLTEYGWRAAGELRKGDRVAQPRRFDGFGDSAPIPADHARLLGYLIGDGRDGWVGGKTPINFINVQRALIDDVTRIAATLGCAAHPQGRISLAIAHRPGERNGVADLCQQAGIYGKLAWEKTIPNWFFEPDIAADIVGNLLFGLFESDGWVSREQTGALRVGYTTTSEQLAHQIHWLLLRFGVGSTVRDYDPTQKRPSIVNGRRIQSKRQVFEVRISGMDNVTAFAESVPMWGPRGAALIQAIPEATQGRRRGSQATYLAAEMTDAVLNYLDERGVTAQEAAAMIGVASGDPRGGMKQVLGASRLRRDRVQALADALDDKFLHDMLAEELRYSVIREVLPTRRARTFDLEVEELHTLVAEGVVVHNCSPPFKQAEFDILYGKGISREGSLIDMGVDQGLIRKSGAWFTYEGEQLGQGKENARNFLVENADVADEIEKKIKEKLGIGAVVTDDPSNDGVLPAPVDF
As to the kind of experiment: Fluorescence Cell-Free Homogeneous Dose Retest to Identify Inhibitors of RecA-Intein Splicing Activity. [Related pubchem assays (depositor defined):AID2097, AID2223, AID489010, AID492950].

Experiment [8] in a line: THP-1 cell cytotoxicity, dose response, cytotoxicity control for Vif-APOBEC3G degradation inhibitor project, THP-1 cells (AID 1117359). The settings on record: Human immunodeficiency virus 1, THP-1.
Experiment [9] can be described thus: cytotoxicity toward NIH3T3 fibroblasts, dose response, counter-screen, cell-based, ATP luminescence, mouse fibroblasts (AID 2010).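 Also: cells exposed to compound for about 90 hours before reading.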 Background: A counterscreen serves to expose hits that act by an unwanted route or on another target.

Sequence of Dual specificity protein phosphatase 3 (P51452 whole entry): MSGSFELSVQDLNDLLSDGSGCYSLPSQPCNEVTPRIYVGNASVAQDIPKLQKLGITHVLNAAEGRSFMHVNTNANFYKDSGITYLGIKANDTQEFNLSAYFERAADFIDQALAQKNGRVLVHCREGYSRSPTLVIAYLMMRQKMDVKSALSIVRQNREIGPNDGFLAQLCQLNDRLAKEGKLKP
Sequence of Small ubiquitin-related modifier 1 (P63165 whole entry): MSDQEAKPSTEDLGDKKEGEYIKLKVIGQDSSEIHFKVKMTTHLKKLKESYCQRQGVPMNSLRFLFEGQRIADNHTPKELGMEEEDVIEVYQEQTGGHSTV
Sequence of Tyrosine-protein phosphatase non-receptor type 11 (Q06124 whole entry): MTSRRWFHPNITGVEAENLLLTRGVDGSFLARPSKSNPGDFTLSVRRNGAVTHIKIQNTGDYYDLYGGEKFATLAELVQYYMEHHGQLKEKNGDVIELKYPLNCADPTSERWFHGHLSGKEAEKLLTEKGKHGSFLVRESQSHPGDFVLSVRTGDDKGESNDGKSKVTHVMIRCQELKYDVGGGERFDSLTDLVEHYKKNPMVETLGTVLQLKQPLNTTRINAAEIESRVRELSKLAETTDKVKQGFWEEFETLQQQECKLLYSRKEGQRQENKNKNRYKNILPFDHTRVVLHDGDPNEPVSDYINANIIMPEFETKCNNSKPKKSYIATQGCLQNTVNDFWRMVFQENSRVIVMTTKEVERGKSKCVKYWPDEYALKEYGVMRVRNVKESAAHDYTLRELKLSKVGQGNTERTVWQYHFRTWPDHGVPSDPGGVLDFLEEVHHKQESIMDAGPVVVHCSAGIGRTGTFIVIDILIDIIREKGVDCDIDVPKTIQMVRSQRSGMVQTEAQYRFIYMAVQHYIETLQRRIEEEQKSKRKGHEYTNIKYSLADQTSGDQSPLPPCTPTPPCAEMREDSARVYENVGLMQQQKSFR
Sequence of Delta-type opioid receptor (P41143 whole entry): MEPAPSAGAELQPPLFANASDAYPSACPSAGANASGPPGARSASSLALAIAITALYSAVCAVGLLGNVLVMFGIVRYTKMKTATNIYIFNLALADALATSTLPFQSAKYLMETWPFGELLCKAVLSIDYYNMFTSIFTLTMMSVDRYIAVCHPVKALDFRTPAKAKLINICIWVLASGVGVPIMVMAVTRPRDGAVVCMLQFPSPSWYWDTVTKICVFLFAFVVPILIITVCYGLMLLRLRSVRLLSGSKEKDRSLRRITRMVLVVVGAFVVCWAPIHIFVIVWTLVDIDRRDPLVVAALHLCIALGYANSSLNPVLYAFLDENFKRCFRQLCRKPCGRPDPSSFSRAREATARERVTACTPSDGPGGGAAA
Sequence of Kappa-type opioid receptor (P41145 whole entry): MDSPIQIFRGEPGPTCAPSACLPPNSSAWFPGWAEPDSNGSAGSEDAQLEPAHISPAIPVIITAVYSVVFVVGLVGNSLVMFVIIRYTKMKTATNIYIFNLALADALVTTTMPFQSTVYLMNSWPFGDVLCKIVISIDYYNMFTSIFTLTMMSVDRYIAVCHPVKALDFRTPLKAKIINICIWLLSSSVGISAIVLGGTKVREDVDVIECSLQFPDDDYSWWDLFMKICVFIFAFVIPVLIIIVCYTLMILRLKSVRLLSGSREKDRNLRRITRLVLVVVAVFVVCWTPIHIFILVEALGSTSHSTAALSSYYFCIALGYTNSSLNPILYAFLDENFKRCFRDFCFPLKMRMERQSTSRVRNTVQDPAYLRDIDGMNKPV

As for `O=S(=O)(O)c1cc(O)c2cc(Nc3ccccc3)ccc2c1`, the IC50 in experiment [1] was 0.335 µM (active); in experiment [2], 0.485 µM (active); in experiment [3] it was 4.47 µM (active); in experiment [4], 5.09 µM (active).
For `O=[N+]([O-])c1c(Nc2ccccc2O)cc(Cl)c2nonc12`, the IC50 is 11.5 µM in experiment [5] and 14.7 µM (inactive) in experiment [6]. For the same molecule, the half-maximal effective concentration (EC50) in experiment [7] is 3.49 µM (inconclusive); at Protein RecA, 1.21 µM (active); in experiment [9], 3.68 µM (active). In addition, the CC50 in experiment [8] is 12.2 µM (active).

Source of the values: ChEMBL document CHEMBL1201862, “PubChem BioAssay data set” (2004).
